# Source: the supplement of paper PMC10307832
# What was measured:
# Assay in all cases: relative viability (nuclei count vs DMSO), 5 days (fraction); higher = more cells survive
# Quizartinib + Tozasertib = compound: CC(C)(C)c1cc(NC(=O)Nc2ccc(-c3cn4c(n3)sc3cc(OCCN5CCOCC5)ccc34)cc2)no1 [Quizartinib] + Cc1cc(Nc2cc(N3CCN(C)CC3)nc(Sc3ccc(NC(=O)C4CC4)cc3)n2)n[nH]1 [Tozasertib] (partner 0.1 µM)
# Procedure, shortened: (§1)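 The day after seeding in 1536-well plates, lung cancer cell lines were treated by pin tool with a single drug, or with a fixed anchor-drug dose together with five library-drug doses (not always all listed) in √10 steps. After 5 days, a combined fix-and-stain solution (final 0.05% Triton X-100, 1% formaldehyde, 1 ug/ml Hoechst) was added. Nuclei counted on 4× images gave relative viability as treated counts over vehicle counts, reported as the median of duplicate plates.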
# Quizartinib + AZD7762 = compound: CC(C)(C)c1cc(NC(=O)Nc2ccc(-c3cn4c(n3)sc3cc(OCCN5CCOCC5)ccc34)cc2)no1 [Quizartinib] + NC(=O)Nc1cc(-c2cccc(F)c2)sc1C(=O)N[C@H]1CCCNC1 [AZD7762] (partner 0.2 µM)
# Procedure, shortened: as §1
# Quizartinib + Pemetrexed = compound: CC(C)(C)c1cc(NC(=O)Nc2ccc(-c3cn4c(n3)sc3cc(OCCN5CCOCC5)ccc34)cc2)no1 [Quizartinib] + Nc1nc2[nH]cc(CCc3ccc(C(=O)N[C@@H](CCC(=O)O)C(=O)O)cc3)c2c(=O)[nH]1 [Pemetrexed] (partner 0.2 µM)
# Procedure, shortened: as §1
# YM155 + Phenformin = compound: COCC[n+]1c2c(n(Cc3cnccn3)c1C)C(=O)c1ccccc1C2=O [YM155] + N=C(N)NC(=N)NCCc1ccccc1 [Phenformin] (partner 250 µM)
# Procedure, shortened: as §1
Cell Line,relative viability (Quizartinib + Tozasertib; first compound 0.001 µM),relative viability (Quizartinib + Tozasertib; first compound 0.003162 µM),relative viability (Quizartinib + Tozasertib; first compound 0.01 µM),relative viability (Quizartinib + Tozasertib; first compound 0.03162 µM),relative viability (Quizartinib + Tozasertib; first compound 0.1 µM),relative viability (Quizartinib + AZD7762; first compound 0.001 µM),relative viability (Quizartinib + AZD7762; first compound 0.003162 µM),relative viability (Quizartinib + AZD7762; first compound 0.01 µM),relative viability (Quizartinib + AZD7762; first compound 0.03162 µM),relative viability (Quizartinib + AZD7762; first compound 0.1 µM),relative viability (Quizartinib + Pemetrexed; first compound 0.001 µM),relative viability (Quizartinib + Pemetrexed; first compound 0.003162 µM),relative viability (Quizartinib + Pemetrexed; first compound 0.01 µM),relative viability (Quizartinib + Pemetrexed; first compound 0.03162 µM),relative viability (Quizartinib + Pemetrexed; first compound 0.1 µM),relative viability (YM155 + Phenformin; first compound 0.002 µM),relative viability (YM155 + Phenformin; first compound 0.006325 µM),relative viability (YM155 + Phenformin; first compound 0.02 µM),relative viability (YM155 + Phenformin; first compound 0.06325 µM)
NCI-H2342,0.625,0.582,0.575,0.498,0.457,0.505,0.637,0.471,0.544,0.518,0.745,0.83,0.774,0.746,0.778,0.581,0.612,0.584,0.65
CAL-12T,0.32,0.283,0.315,0.234,0.199,0.632,0.663,0.759,0.495,0.689,1.01,1.01,1.36,0.998,1.49,0.497,0.607,0.658,0.642
NCI-H1395,0.873,0.686,0.782,0.814,0.682,0.477,0.395,0.46,0.367,0.367,0.802,0.927,0.717,0.74,1,0.419,0.465,0.453,0.481
NCI-H1703,–,–,–,–,–,0.155,0.143,–,–,0.134,–,–,–,–,–,–,–,–,–
HCC-15,–,0.429,0.602,0.29,0.2,1.35,1.13,0.951,1.14,0.958,0.223,0.21,0.248,0.216,0.224,0.465,0.464,0.464,0.494
SW 900,0.57,0.506,–,0.344,0.39,0.711,0.498,0.597,0.532,0.58,0.435,0.488,0.422,0.485,0.483,0.638,0.642,0.674,0.69
NCI-H661,0.298,0.364,0.352,0.359,0.355,–,–,–,–,–,0.868,0.887,0.926,0.898,0.89,0.257,0.245,0.264,0.288
NCI-H647,0.267,0.258,0.284,0.329,0.301,0.39,0.651,0.422,0.325,0.566,0.141,0.125,0.221,0.182,0.19,0.49,0.636,0.587,0.491
H3255,0.59,0.58,0.508,0.584,0.544,0.905,0.894,0.911,0.911,1.03,0.531,0.579,0.546,0.593,0.586,0.335,0.336,0.376,0.374
NCI-H2405,0.742,0.722,0.726,0.738,0.68,0.919,0.741,0.789,0.745,0.797,0.961,1.04,1.02,1.08,1.15,0.383,0.39,0.423,0.404
NCI-H1666,0.56,0.594,0.612,0.462,0.557,0.851,0.803,0.888,0.8,0.99,0.772,0.822,0.85,0.827,0.914,0.567,0.599,0.578,0.579
NCI-H650,0.706,0.676,0.694,0.689,0.736,0.858,0.785,1.25,0.856,1.13,0.902,0.945,0.9,0.912,1.09,0.417,0.477,0.523,0.447
COR-L23,0.175,0.178,0.159,0.116,0.139,–,–,–,–,–,0.193,0.189,0.208,0.194,0.211,0.399,0.446,0.451,0.393
NCI-H1734,0.237,0.288,0.267,0.274,0.271,0.736,0.54,0.603,0.522,0.628,0.375,0.412,0.407,0.457,0.412,0.43,0.451,0.404,0.509
UMC-11,–,0.194,0.204,0.223,0.222,–,–,–,–,–,0.676,0.787,0.864,0.771,0.818,0.3,0.355,0.363,0.328
NCI-H596,0.642,0.838,0.964,0.803,0.64,1.12,1.07,1.02,1.04,1.32,0.511,0.475,0.498,0.476,0.459,0.65,0.718,0.861,0.741
NCI-H2228,0.2,0.2,0.208,0.228,0.187,–,–,–,–,–,0.288,0.311,0.355,0.316,0.317,0.304,0.272,0.375,0.338
EPLC-272H,0.226,0.208,0.246,0.33,0.297,0.287,0.325,0.258,0.208,0.231,0.255,0.361,0.4,0.26,0.305,0.347,0.317,0.286,0.304
RERF-LC-KJ,0.47,0.445,0.53,0.248,0.337,0.898,0.954,0.945,0.98,0.987,0.458,0.493,0.48,0.457,0.492,0.386,0.432,0.462,0.463
NCI-H1793,0.329,0.289,0.291,0.214,0.238,0.483,0.414,0.451,0.409,0.259,0.806,1.03,0.841,0.854,0.929,0.348,0.371,0.365,0.353

Cell Line,relative viability (Quizartinib + Tozasertib; first compound 0.001 µM),relative viability (Quizartinib + Tozasertib; first compound 0.003162 µM),relative viability (Quizartinib + Tozasertib; first compound 0.01 µM),relative viability (Quizartinib + Tozasertib; first compound 0.03162 µM),relative viability (Quizartinib + Tozasertib; first compound 0.1 µM),relative viability (Quizartinib + AZD7762; first compound 0.001 µM),relative viability (Quizartinib + AZD7762; first compound 0.003162 µM),relative viability (Quizartinib + AZD7762; first compound 0.01 µM),relative viability (Quizartinib + AZD7762; first compound 0.03162 µM),relative viability (Quizartinib + AZD7762; first compound 0.1 µM),relative viability (Quizartinib + Pemetrexed; first compound 0.001 µM),relative viability (Quizartinib + Pemetrexed; first compound 0.003162 µM),relative viability (Quizartinib + Pemetrexed; first compound 0.01 µM),relative viability (Quizartinib + Pemetrexed; first compound 0.03162 µM),relative viability (Quizartinib + Pemetrexed; first compound 0.1 µM),relative viability (YM155 + Phenformin; first compound 0.002 µM),relative viability (YM155 + Phenformin; first compound 0.006325 µM),relative viability (YM155 + Phenformin; first compound 0.02 µM),relative viability (YM155 + Phenformin; first compound 0.06325 µM)
NCI-H727,0.594,0.654,0.557,0.648,0.7,0.667,0.545,0.564,0.457,0.759,–,–,–,–,–,0.532,0.522,0.634,0.689
SK-LU-1,0.268,0.303,0.378,0.319,0.309,–,–,–,–,–,0.875,0.912,1.08,0.975,0.993,0.487,0.499,0.566,0.588
PC-14,0.555,0.551,0.584,0.556,0.558,0.31,0.417,0.327,0.22,0.457,0.134,0.143,0.13,–,0.162,0.485,0.708,0.668,0.554
NCI-H1437,0.372,0.399,0.422,0.367,0.329,0.944,1.05,1.17,1.04,0.943,0.314,0.302,0.305,0.335,0.32,0.285,0.308,0.257,0.324
ABC-1,0.184,0.179,0.172,0.205,0.183,0.717,0.783,0.784,0.913,0.827,–,–,–,–,–,0.271,0.239,0.233,0.207
SK-MES-1,0.852,0.904,0.864,–,0.77,–,–,–,–,–,0.939,0.904,0.981,0.563,0.817,0.584,0.695,0.575,0.256
LK-2,0.133,–,0.145,0.17,0.142,0.456,0.405,0.474,0.244,0.293,0.262,0.301,0.285,0.248,0.336,0.356,0.571,0.447,0.379
NCI-H2085,0.679,0.752,0.816,0.614,0.45,0.861,0.9,1.04,0.87,0.596,0.82,0.879,0.97,0.836,0.833,0.782,0.835,0.847,0.725
NCI-H2087,–,0.226,0.233,0.189,0.262,1.13,1.15,1.26,1.38,1.3,0.66,0.536,0.71,0.661,0.651,0.476,0.448,0.498,0.495
NCI-H2347,0.547,0.419,0.531,0.511,0.521,0.728,0.696,0.799,0.768,0.749,0.426,0.382,0.45,0.443,0.456,0.489,0.395,0.582,0.448
SW 1573,0.163,0.175,0.225,–,0.265,–,–,–,–,–,0.872,0.75,0.826,–,0.848,0.365,0.305,0.394,0.338
NCI-H1792,–,–,–,–,–,0.547,0.654,0.691,0.496,0.604,0.624,0.79,0.913,0.69,0.713,–,–,0.285,0.523
NCI-H2009,0.692,0.695,0.628,0.653,0.506,–,–,–,–,–,0.946,0.932,1.05,1.02,1.07,0.464,0.489,0.46,0.326
A549,–,–,–,–,–,–,–,–,–,–,–,–,–,–,–,0.17,0.0769,0.177,0.137
NCI-H1623,0.392,0.469,0.449,0.441,0.511,–,–,–,–,–,–,–,–,–,–,0.599,0.6,0.643,0.604
NCI-H1650,0.42,0.366,0.369,–,0.238,–,–,–,–,–,0.342,0.398,0.441,–,0.381,0.356,0.412,0.484,0.557
NCI-H520,0.347,0.448,0.444,0.393,0.385,–,–,–,–,–,–,0.557,0.745,0.714,0.477,0.58,0.535,0.636,0.604
NCI-H1563,–,–,–,–,–,–,–,–,–,–,1.18,0.788,0.8,0.717,0.76,0.632,0.682,0.63,0.65
NCI-H2023,0.278,0.32,0.272,–,0.177,–,–,–,–,–,0.209,0.215,0.295,–,0.244,0.361,0.403,0.411,0.422
COR-L 105,0.344,0.343,0.42,0.36,0.347,–,–,–,–,–,0.985,1.18,1.29,–,1.3,0.343,0.462,0.508,0.581
